Some test systems named below: K-562 leukemia; SN12C renal; PC-3 prostate; A549 NSCLC; CAKI-1 renal; SF-295 CNS; NCI-H226 lung; OVCAR-8 ovarian; 786-0 renal; MDA-MB-435.
Common to all, as to assay: NCI anticancer screen, dose series, 48 h

Several values for one entry are separate records, joined by “and”; a condition that tells them apart may be missing. Equal values may be shown once.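 Grown in 96-well plates, cells were treated for 48 hours with each compound at five concentrations. Insufficient inhibition: endpoint recorded as highest concentration tested. Here, GI50 denotes the concentration required for 50% inhibition of growth. TGI denotes the concentration required for complete inhibition of growth.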 Where only a bound is given, the exact number is not on record here.

In the case of `O=C(Nc1cccc(-n2cc(-c3ccncc3)c(-c3cc(O)cc(Cl)c3)n2)c1)Nc1ccc(Cl)c(C(F)(F)F)c1`, the GI50 in the assay on K-562 leukemia is 2.59 µM; with SN12C renal, 3.45 µM; with PC-3 prostate, 2.1 µM; with A549 NSCLC, 2.33 µM; with CAKI-1 renal, 2.68 µM; in the assay with SF-295 CNS, 2.05 µM. Further, the GI50 in the assay on NCI-H226 lung is 2.47 µM; with OVCAR-8 ovarian it was 2.15 µM; in the assay with 786-0 renal, 1.83 µM; with MDA-MB-435 it was 1.78 µM. Besides, the TGI in the assay on K-562 leukemia was determined as 11.9 µM; in the assay on SN12C renal, 17.2 µM; in the assay with PC-3 prostate it was 6.43 µM; in the assay with A549 NSCLC it was 9.2 µM; with CAKI-1 renal, 7.87 µM; in the assay with SF-295 CNS it was 4.95 µM. The TGI with NCI-H226 lung came to 8.96 µM; in the assay on OVCAR-8 ovarian it was 5.55 µM; with 786-0 renal it was 4.45 µM; in the assay on MDA-MB-435, 3.89 µM.
As to `CC(=O)C(=Cc1ccc(C=C(C(C)=O)C(C)=O)cc1)C(C)=O`, the TGI was found to be 6.12 µM with K-562 leukemia; 3.07 µM in the assay with SN12C renal; 5.17 µM with PC-3 prostate; 25.2 µM in the assay on A549 NSCLC; 4.75 µM in the assay with CAKI-1 renal; 7.97 µM with SF-295 CNS. Further, the TGI in the assay on NCI-H226 lung came out at 7.8 µM; in the assay with OVCAR-8 ovarian, 14.6 µM; in the assay with 786-0 renal, 5.84 µM; in the assay on MDA-MB-435 it was 5.66 µM.
Turning to `COc1ccc2c(=O)cc(-c3ccncc3)oc2c1OC`, the TGI in the assay with K-562 leukemia, in the assay with SN12C renal, in the assay on PC-3 prostate, in the assay with A549 NSCLC, in the assay with CAKI-1 renal and in the assay on SF-295 CNS was > 100 µM in each case. Moreover, the TGI in the assay on OVCAR-8 ovarian, in the assay with 786-0 renal and in the assay on MDA-MB-435 was > 100 µM each time.
On to `CCCCC[C@H]1C/C=C2/C(=O)C=C[C@@H]2C/C=C\CCCC(=O)O[C@@H](CCCCC)C/C=C2/C(=O)C=C[C@@H]2C/C=C\CCCC(=O)O1`, for which the GI50 in the assay on K-562 leukemia is 0.0891 µM; with SN12C renal it was 0.105 µM; in the assay on PC-3 prostate, 0.285 µM; in the assay on A549 NSCLC it was 0.528 µM; in the assay with SF-295 CNS, 0.506 µM; in the assay on NCI-H226 lung it was 0.746 µM. Further, the results for the GI50 with OVCAR-8 ovarian, in the assay on 786-0 renal and in the assay on MDA-MB-435 were 0.112 µM, 0.41 µM and 0.0959 µM, respectively. The TGI in the assay with K-562 leukemia is 0.561 µM; in the assay on SN12C renal, 0.796 µM; in the assay on PC-3 prostate it was 0.806 µM; in the assay on A549 NSCLC, 1.35 µM; with SF-295 CNS it was 1.29 µM; in the assay with NCI-H226 lung it was 1.64 µM. The TGI worked out at 2.7 µM in the assay with OVCAR-8 ovarian, 0.811 µM with 786-0 renal and 0.412 µM with MDA-MB-435.
Turning to `COc1ccc(/C=C/C(=O)c2ccc(O)c(CN3CCN(c4cc5c(cc4F)c(=O)c(C(=O)O)cn5C4CC4)CC3)c2)cc1`, the GI50 was 0.463 µM with K-562 leukemia; 1.39 µM with PC-3 prostate; 3.69 µM in the assay with A549 NSCLC; 2.35 µM in the assay on CAKI-1 renal; 2.1 µM with SF-295 CNS; 3.75 µM with NCI-H226 lung. For the same compound, the GI50 was 0.644 µM in the assay with OVCAR-8 ovarian, 0.854 µM in the assay on 786-0 renal and 2.17 µM with MDA-MB-435. The TGI in the assay with K-562 leukemia, in the assay with PC-3 prostate, in the assay with A549 NSCLC, in the assay with CAKI-1 renal, with SF-295 CNS and with NCI-H226 lung was > 100 µM in each case. In addition, the TGI in the assay on OVCAR-8 ovarian, in the assay with 786-0 renal and with MDA-MB-435 was > 100 µM each time.
With `O=C(O)c1cc2ccc3ccccc3c2oc1=O`, the TGI in the assay with K-562 leukemia, in the assay on SN12C renal, with PC-3 prostate, with A549 NSCLC, with SF-295 CNS and with NCI-H226 lung was > 100 µM throughout. The TGI in the assay with OVCAR-8 ovarian, in the assay with 786-0 renal and with MDA-MB-435 was > 100 µM each time.
Turning to `O=C1c2cccc(NCCN=Cc3cc([N+](=O)[O-])ccc3O)c2C(=O)c2c(NCCN=Cc3cc([N+](=O)[O-])ccc3O)cccc21`, the GI50 in the assay on K-562 leukemia was 3.67 µM; with SN12C renal it was 2.45 µM; in the assay on PC-3 prostate, 3.25 µM; with A549 NSCLC, 3.89 µM; in the assay on SF-295 CNS, 2.08 µM; in the assay with NCI-H226 lung it was 3.34 µM. Besides, the GI50 was 2.55 µM in the assay on OVCAR-8 ovarian, 7.04 µM in the assay on 786-0 renal and 4.28 µM in the assay on MDA-MB-435. Further, the TGI was > 100 µM in the assay on K-562 leukemia; > 100 µM in the assay on SN12C renal; > 100 µM in the assay with PC-3 prostate; > 100 µM in the assay with A549 NSCLC; 52.1 µM in the assay on SF-295 CNS; > 100 µM in the assay with NCI-H226 lung. Moreover, the TGI with OVCAR-8 ovarian, in the assay on 786-0 renal and in the assay with MDA-MB-435 was > 100 µM each time.
`Cc1cc(Cl)ccc1Nc1nc(C(F)(F)F)ccc1C(=O)N/N=C/c1ccc(Cl)cc1`: the GI50 in the assay on K-562 leukemia is 1.83 µM; in the assay with SN12C renal, 2.22 µM; with PC-3 prostate it was 2.13 µM; in the assay with A549 NSCLC it was 3.02 µM; in the assay on CAKI-1 renal it was 1.25 µM; with NCI-H226 lung, 1.21 µM. For the same compound, the GI50 is 3.16 µM in the assay on OVCAR-8 ovarian, 2.04 µM with 786-0 renal and 1.42 µM in the assay on MDA-MB-435. Also, the TGI in the assay on K-562 leukemia is 8.22 µM; in the assay on SN12C renal it was 9 µM; in the assay on PC-3 prostate, 9.31 µM; in the assay on A549 NSCLC, 27.9 µM; in the assay with CAKI-1 renal, 3.85 µM; in the assay with NCI-H226 lung, 3.82 µM. The results for the TGI in the assay with OVCAR-8 ovarian, in the assay with 786-0 renal and in the assay with MDA-MB-435 were > 100 µM, 5.74 µM and 3.89 µM, respectively.
Take `COc1ccc2c(c1)nnn1c3ncccc3c(N=O)c21`: the GI50 with SN12C renal is 1.4 µM and 2.06 µM; in the assay on PC-3 prostate, 2.05 µM; in the assay on A549 NSCLC it was 10.8 µM and 3.87 µM; in the assay with CAKI-1 renal it was 0.0892 µM and 0.202 µM; in the assay with SF-295 CNS it was 4.69 µM and 6.95 µM; in the assay on NCI-H226 lung, 4.14 µM and 11.6 µM. Further, the GI50 is 0.389 µM and 0.517 µM in the assay on OVCAR-8 ovarian; 0.334 µM and 2.38 µM with 786-0 renal; 1.94 µM and 2.05 µM with MDA-MB-435. The TGI was 8.1 µM and 9.82 µM in the assay with SN12C renal; 92.7 µM in the assay on PC-3 prostate; 50 µM and 15.7 µM with A549 NSCLC; 0.359 µM and 1.59 µM in the assay on CAKI-1 renal; 15.3 µM and 32 µM in the assay with SF-295 CNS; 13.1 µM and 47.7 µM with NCI-H226 lung. Also, the TGI in the assay on OVCAR-8 ovarian was 21.4 µM and 3.73 µM; in the assay with MDA-MB-435 it was 9.7 µM and 12.4 µM.
